Read-outs that look alike come from different tables or passages of the source.
Key:
[1] = test system: MES SA (human uterine sarcoma); settings: for IC50: read-out: IC50 MES SA
[2] = test system: MES SA DX (human uterine sarcoma cell line with marked multidrug resistance); settings: for IC50: read-out: IC50 MES SA DX
[3] = test system: HEK 293T (human embryonic kidney cancer cell line); settings: for IC50: read-out: IC50 HEK 293T
[4] = test system: MES SA (human uterine sarcoma); test: cells; settings: 72 h, read-out: IC50 MES SA
[5] = test system: MES SA DX (human uterine sarcoma cell line with marked multidrug resistance); test: cells; settings: 72 h, read-out: IC50 MES SA DX
[6] = test system: HEK 293T (human embryonic kidney cancer cell line); test: cells; settings: 72 h, read-out: IC50 HEK 293T

(4R,5S,6R,10S)-8-{[(1S,2R)-2-(1,3-Dioxan-2-yl)-12-hydroxy-7-methoxy-5-methyl-11-oxo-3a,4,8,9,10,11-hexahydro-13aH-spiro[2,4-epoxyfuro[3,2-b]naphtho[2,3-h]chromene-1,2′-oxiran]-13a-yl]oxy}-4,6-dimethyl-2-oxo-1,3,7-trioxaspiro[4.5]dec-10-ylacetate [Trx22]
IC50 [1]: 5.74 nM | IC50 [2]: 56.9 nM | IC50 [3]: 4.2 nM

COc1c2c(c(OC(C)=O)c3c4c(c(C)cc13)[C@H]1O[C@]3(C5OCCCO5)O[C@@H]1[C@@](OC)(O4)[C@@]31CO1)C(=O)CCC2 [Trx27, (1S,2S,3aS,4R,13aR)-2-(1,3-Dioxan-2-yl)-7,13a-dimethoxy-5-methyl-11-oxo-3a,8,9,10,11,13a-hexahydro-4H-spiro[2,4-epoxyfuro[3,2-b]naphtho[2,3-h]chromene-1,2′-oxiran]-12-yl acetate]
cytotoxic potency against MES SA, in words [1]: no significant loss of potency | cytotoxic potency against MES SA DX, in words [2]: no significant loss of potency | cytotoxic potency against HEK 293T, in words [3]: no significant loss of potency | IC50 [4]: 2.15 nM | IC50 [5]: 1.43 nM | IC50 [6]: 1.24 nM

COc1c2c(c(O)c3c4c(c(C)cc13)[C@@H]1O[C@@]3(C(OC)OC)O[C@@H]1[C@@](O[C@H]1C[C@@H](O)[C@@](O)(C(C)=O)[C@H](C)O1)(O4)[C@@]31CO1)C(=O)[C@@H](O)C[C@@H]2O[C@H]1C[C@@](C)(O)[C@H](O)[C@H](C)O1 [Trioxacarcin D, reference compound]
IC50 [1]: 11.1 nM | IC50 [2]: > 1000 nM | IC50 [3]: 8.02 nM

COc1c2c(c(O)c3c4c(c(C)cc13)C1OC3(C5OCCCO5)OC1[C@@](OCC=CCO[C@@]15Oc6c(c(C)cc7c(OC)c8c(c(O)c67)C(=O)CCC8)C6OC(C7OCCCO7)(OC61)[C@]51CO1)(O4)[C@@]31CO1)C(=O)CCC2 (stereo partly drawn) [Trx25, (1S,2S,3aS,4R,13aR,1′″S,2′″S,3a′″S,4′R,13a′″R)-13a,13a′-[(2E)-but-2-ene-1,4-diylbis(oxy)]bis[2-(1,3-dioxan-2-yl)-12-hydroxy-7-methoxy-5-methyl-3a,4,8,9,10,13a-hexahydro-11H-spiro[2,4-epoxyfuro[3,2-b]naphtho[2,3-h]chromene-1,2′-oxiran]-11-one]]
IC50 [1]: 235 nM | IC50 [2]: 429 nM | IC50 [3]: 105 nM

COc1c2c(c(O)c3c4c(c(C)cc13)C1OC3(C5OCCCO5)OC1[C@@](OC)(O4)[C@@]31CO1)C(=O)CCC2 (stereo partly drawn) [Trx13]
IC50 [1]: 0.56 nM | IC50 [2]: 0.42 nM | IC50 [3]: 0.4 nM | IC50 [4]: 0.53 nM | IC50 [5]: 0.38 nM | IC50 [6]: 0.5 nM

COc1c2c(c(OC(C)=O)c3c4c(c(C)cc13)[C@H]1O[C@]3(C5OCCCO5)O[C@@H]1[C@@](OC(C)=O)(O4)[C@@]31CO1)C(=O)CCC2 [Trx26, (1S,2S,3aS,4R,13aS)-2-(1,3-Dioxan-2-yl)-7-methoxy-5-methyl-11-oxo-3a,4,8,9,10,11-hexahydro-13aH-spiro[2,4-epoxyfuro[3,2-b]naphtho[2,3-h]chromene-1,2′-oxirane]-12,13a-diyl diacetate]
cytotoxic potency against MES SA, in words [1]: no significant loss of potency | cytotoxic potency against MES SA DX, in words [2]: no significant loss of potency | cytotoxic potency against HEK 293T, in words [3]: no significant loss of potency | IC50 [4]: 67.4 nM | IC50 [5]: 60.3 nM | IC50 [6]: 11.6 nM

Reference: patent publication US20210230178A1, “TRIOXACARCIN ANALOGS AND DIMERS AS POTENT ANTICANCER AGENTS” (William Marsh Rice University, priority 2017, published 2021)
